Measurements published in patent publication US7064120B2, “Tricyclic pyridyl carboxamides and derivatives thereof tocolytic oxytocin receptor antagonists” (Wyeth, priority 2001, dated 2006).

molecular target: T1, human oxytocin receptor (Homo sapiens, UniProt P30559); assay: Oxytocin binding in CHO cell membranes expressing human oxytocin receptors ([3H]oxytocin radioligand binding); conditions: 100 nM
T1 construct: host or cells: CHO cells, stably transfected (pcDNA3.1 vector)
T1 sequence (P30559 1-389): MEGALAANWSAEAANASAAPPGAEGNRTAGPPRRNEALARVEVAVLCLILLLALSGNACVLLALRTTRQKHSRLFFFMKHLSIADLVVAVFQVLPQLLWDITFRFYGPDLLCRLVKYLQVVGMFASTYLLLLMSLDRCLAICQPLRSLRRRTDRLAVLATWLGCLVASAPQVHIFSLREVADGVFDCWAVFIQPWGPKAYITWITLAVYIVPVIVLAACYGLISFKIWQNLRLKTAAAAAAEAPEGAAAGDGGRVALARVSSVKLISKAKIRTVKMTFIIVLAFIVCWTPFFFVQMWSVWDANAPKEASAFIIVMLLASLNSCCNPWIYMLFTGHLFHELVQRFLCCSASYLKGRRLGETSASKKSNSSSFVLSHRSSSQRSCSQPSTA
Method in brief: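 CHO membranes expressing human oxytocin receptor (25–50 μg protein/well) incubated 60 min at room temperature with [3H]oxytocin in Tris-HCl pH 7.4 buffer with MgCl2, BSA and protease inhibitors. Filtration and scintillation counting; reported as % inhibition at a stated concentration or nM IC50.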

Compound	OT % inhibition @ 100 nM [%]
COc1cccc(-c2ccc(C(=O)N3Cc4ccc(C(=O)N(C)Cc5cccnc5)n4Cc4ccccc43)cc2OC)c1 [Example 110]	94
COc1cc(C(=O)N2Cc3ccc(C(=O)N4CCN(c5ccccn5)CC4)n3Cc3ccccc32)ccc1-c1cccc2ccccc12 [Example 83]	30

same assay, conditions: 100 nM, read-out: OT % inhibition @ 100 nM

Compound	inhibition at 0.1 µM [%]
COc1ccccc1-c1ccc(C(=O)N2Cc3ccc(C(=O)NCCc4ccccn4)n3Cc3ccccc32)cc1C [Example 49, 10-[(2′-Methoxy-2-methyl-[1,1′-biphenyl]-4-yl)carbonyl]-N-[2-(2-pyridinyl)ethyl]-10,11-dihydro-5H-pyrrolo[2,1-c][1,4]benzodiazepine-3-carboxamide]	58
COc1cccc(-c2ccc(C(=O)N3Cc4ccc(C(=O)NCc5cccnc5)n4Cc4ccccc43)cc2C)c1 [Example 38, 10-[(3′-Methoxy-2-methyl-[1,1′-biphenyl]-4-yl)carbonyl]-N-(3-pyridinylmethyl)-10,11-dihydro-5H-pyrrolo[2,1-c][1,4]benzodiazepine-3-carboxamide]	26
CN(Cc1cccnc1)C(=O)c1ccc2n1Cc1ccccc1N(C(=O)c1ccc(-c3cccc4ccccc34)cc1Cl)C2 [Example 111, 10-[2-Chloro-4-(naphthalen-1-yl)benzoyl]-N-methyl-N-(3-pyridinylmethyl)-10,11-dihydro-5H-pyrrolo[2,1-c][1,4]benzodiazepine-3-carboxamide]	36
COc1ccccc1-c1ccc(C(=O)N2Cc3ccc(C(=O)NCc4ccccn4)n3Cc3ccccc32)cc1 [Example 26, 10-[(2′-Methoxy-[1,1′-biphenyl]-4-yl)carbonyl]-N-(2-pyridinylmethyl)-10,11-dihydro-5H-pyrrolo[2,1-c][1,4]benzodiazepine-3-carboxamide]	47
COc1ccccc1-c1ccc(C(=O)N2Cc3ccc(C(=O)NCc4cccnc4)n3Cc3ccccc32)cc1OC [Example 45, 10-[(2,2′-Dimethoxy-[1,1′-biphenyl]-4-yl)carbonyl]-N-(3-pyridinylmethyl)-10,11-dihydro-5H-pyrrolo[2,1-c][1,4]benzodiazepine-3-carboxamide]	37
COc1ccccc1-c1ccc(C(=O)N2Cc3ccc(C(=O)N(C)CCc4ccccn4)n3Cc3ccccc32)cc1OC [Example 64, 10-[(2,2′-Dimethoxy-[1,1′-biphenyl]-4-yl)carbonyl]-N-methyl-N-[2-(2-pyridinyl)ethyl]-10,11-dihydro-5H-pyrrolo[2,1-c][1,4]benzodiazepine-3-carboxamide]	91
COc1cc(C(=O)N2Cc3ccc(C(=O)N4CCN(c5ccncc5)CC4)n3Cc3ccccc32)ccc1-n1c(C)ccc1C [Example 146, {10-[4-(2,5-Dimethyl-1H-pyrrol-1-yl)-3-methoxybenzoyl]-10,11-dihydro-5H-pyrrolo[2,1-c][1,4]benzodiazepin-3-yl}[4-(pyridin-4-yl)-1-piperazinyl]methanone]	38
O=C(NCc1cccnc1)c1ccc2n1Cc1ccccc1N(C(=O)c1ccc(-c3cccc4ccccc34)cc1Cl)C2 [Example 47, 10-[2-Chloro-4-(naphthalen-1-yl)benzoyl]-N-(3-pyridinylmethyl)-10,11-dihydro-5H-pyrrolo[2,1-c][1,4]benzodiazepine-3-carboxamide]	1
COc1cccc(-c2ccc(C(=O)N3Cc4ccc(C(=O)N5CCN(c6ccncc6)CC5)n4Cc4ccccc43)cc2C)c1 [Example 115, {10-[(3′-Methoxy-2-methyl-[1,1′-biphenyl]-4-yl)carbonyl]-10,11-dihydro-5H-pyrrolo[2,1-c][1,4]benzodiazepin-3-yl}[4-(4-pyridinyl)-1-piperazinyl]methanone]	66
COc1ccccc1-c1ccc(C(=O)N2Cc3ccc(C(=O)NCCc4ccccn4)n3Cc3ccccc32)cc1OC [Example 58, 10-[(2,2′-Dimethoxy-[1,1′-biphenyl]-4-yl)carbonyl]-N-[2-(2-pyridinyl)ethyl]-10,11-dihydro-5H-pyrrolo[2,1-c][1,4]benzodiazepine-3-carboxamide]	37
COc1ccccc1-c1ccc(C(=O)N2Cc3ccc(C(=O)N4CCCCC4c4cccnc4)n3Cc3ccccc32)cc1OC (stereo not shown) [Example 141, {10-[(2,2′-Dimethoxy-[1,1′-biphenyl]-4-yl)carbonyl]-10,11-dihydro-5H-pyrrolo[2,1-c][1,4]benzodiazepin-3-yl}[2-(3-pyridinyl)-1-piperidinyl]methanone]	96
